# Test results taken from patent US20040106626A1, “6-Membered unsaturated heterocyclic compounds useful for selective inhibition of the coagulation cascade” (Pharmacia Corporation, priority 2001, published 2004).
# Legend:
# Type in all cases: biochemical
# [1] = molecular target: T1, recombinant soluble tissue factor and recombinant human factor VIIa (TF-VIIa) (Homo sapiens, UniProt P08709); assay: TF-VIIa assay (chromogenic substrate hydrolysis); conditions: reported only as less than or greater than 0.1 uM
# T1 construct: conversion of coagulation factor VII to VIIa by factor Xa; purchased American Diagnostica, Greenwich CT; host or cells: soluble TF made in house in E. coli
# Protocol: In this assay 100 nM recombinant soluble tissue factor and 2 nM recombinant human factor VIIa are added to a 96-well assay plate containing 0.4 mM of the substrate, N-methylsulfonyl-D-phe-gly-arg-p-nitroaniline and either inhibitor or buffer (5 mM CaCl2, 50 mM Tris-HCl, pH 8.0, 100 mM NaCl, 0.1% BSA). […] Percent inhibition of TF-VIIa activity is calculated from OD405 nm value from the experimental and control sample.
# (§1) Recombinant human VIIa was purchased from American Diagnostica, Greenwich CT and chromogenic substrate N-methylsulfonyl-D-phe-gly-arg-p-nitroaniline was prepared by American Peptide Company, Inc., Sunnyvale, Calif. Factor Xa was obtained from Enzyme Research Laboratories, South Bend Ind., thrombin from Calbiochem, La Jolla, Calif., and trypsin and L-BAPNA from Sigma, St. Louis Mo.
# Human factor Xa = molecular target: T2, Human factor Xa (Homo sapiens, UniProt P00742); assay: Xa assay (chromogenic substrate S-2765); conditions: reported only as less than or greater than 30 uM; read-out: Factor Xa (II) IC50
# T2 construct: purchased Enzyme Research Laboratories, South Bend Ind
# Protocol: Human factor Xa (0.3 nM) and 0.15 mM -a-Benzyloxycarbonyl-D-arginyl-L-glycyl-L-arginine-p-nitroaniline-dihydrochloride (S-2765) are added to a 96-well assay plate containing either inhibitor or buffer (50 mM Tris-HCl, pH 8.0, 100 mM NaCl, 0.1% BSA). The reaction, in a final volume of 100 ul is measured immediately at 405 nm to determine background absorbance. The plate is incubated at room temperature for 60 min, at which time the rate of hydrolysis of the substrate is measured by monitoring the reaction at 405 nm for the release of p-nitroaniline. Percent inhibition of Xa activity is calculated from OD405 nm value from the experimental and control sample.
# Recombinant soluble TF, consisting of amino acids 1-219 of the mature protein sequence was expressed in E. coli and purified using a Mono Q Sepharose FPLC. Recombinant human VIIa was purchased from American Diagnostica, Greenwich CT and chromogenic substrate N-methylsulfonyl-D-phe-gly-arg-p-nitroaniline was prepared by American Peptide Company, Inc., Sunnyvale, Calif. Factor Xa was obtained from Enzyme Research Laboratories, South Bend Ind., thrombin from Calbiochem, La Jolla, Calif., and trypsin and L-BAPNA from Sigma, St. Louis Mo. The chromogenic substrates S-2765 and S-2238 were purchased from Chromogenix, Sweden.
# [2] = system: Normal human pooled plasma; assay: Prothrombin time (PT) clotting assay; conditions: concentration at which prothrombin time is prolonged by 2x normal, reported as less than or greater than 50 uM
# Protocol: The prothrombin time (PT) assay is a clotting assay that is used to determine deficiencies of clotting factor activity in the extrinsic pathway. The assay measures time to clotting after the addition of thromboplastin (human tissue factor). Normal human pooled plasma is incubated with 100 uM compound or saline in a coagulation machine. Thromboplastin is added and time to clotting is measured. Compounds with greater than 3×normal PT of 11.0 seconds are further analyzed by concentration response to determine at what concentration the prothrombin time is prolonged by 2×normal.
# Human thrombin = molecular target: T3, Human thrombin (Homo sapiens, UniProt P00734); assay: Thrombin assay (chromogenic substrate); conditions: reported only as less than or greater than 30 uM; read-out: Thrombin (II) IC50
# T3 construct: converts prothrombin (II) to thrombin (IIa); purchased Calbiochem, La Jolla, Calif
# Protocol: Percent inhibition of thrombin activity is calculated from OD405 nm value from the experimental and control sample.
# as §1
# T2 sequence (P00742 235-488 limits assumed): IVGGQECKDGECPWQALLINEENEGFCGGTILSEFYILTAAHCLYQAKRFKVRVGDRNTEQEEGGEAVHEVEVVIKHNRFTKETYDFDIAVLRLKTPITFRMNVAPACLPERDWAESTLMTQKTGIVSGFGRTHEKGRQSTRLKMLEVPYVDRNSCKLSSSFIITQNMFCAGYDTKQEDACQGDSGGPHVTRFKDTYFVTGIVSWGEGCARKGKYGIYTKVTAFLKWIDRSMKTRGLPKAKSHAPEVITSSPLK
# T2 sequence (P00742 41-179 limits assumed): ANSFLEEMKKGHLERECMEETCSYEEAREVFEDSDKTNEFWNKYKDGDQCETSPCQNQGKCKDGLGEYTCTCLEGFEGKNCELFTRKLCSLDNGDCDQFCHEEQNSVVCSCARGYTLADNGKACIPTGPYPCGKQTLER
# T1 sequence (P08709 213-466 limits assumed): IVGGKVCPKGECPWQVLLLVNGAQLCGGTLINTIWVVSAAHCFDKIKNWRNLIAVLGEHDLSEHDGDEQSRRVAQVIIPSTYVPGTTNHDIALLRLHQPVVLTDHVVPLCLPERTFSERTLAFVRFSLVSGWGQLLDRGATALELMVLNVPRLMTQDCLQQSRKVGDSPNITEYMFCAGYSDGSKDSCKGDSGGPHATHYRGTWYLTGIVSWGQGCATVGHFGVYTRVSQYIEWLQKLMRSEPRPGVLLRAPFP
# T1 sequence (P08709 61-212 limits assumed): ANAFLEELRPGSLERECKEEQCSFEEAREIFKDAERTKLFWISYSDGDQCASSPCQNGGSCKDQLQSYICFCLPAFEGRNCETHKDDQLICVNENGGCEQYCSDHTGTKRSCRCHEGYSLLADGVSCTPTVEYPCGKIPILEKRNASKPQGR
# T1 sequence (P13726 33-251 partner limits assumed): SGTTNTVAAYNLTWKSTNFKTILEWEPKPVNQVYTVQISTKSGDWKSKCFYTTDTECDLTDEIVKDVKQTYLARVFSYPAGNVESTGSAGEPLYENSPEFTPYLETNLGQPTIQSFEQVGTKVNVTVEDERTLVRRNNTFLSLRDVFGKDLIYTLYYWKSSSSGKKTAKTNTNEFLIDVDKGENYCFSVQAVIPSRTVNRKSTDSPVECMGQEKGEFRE
SMILES,IC50 [1],IC50 (Human factor Xa),PT (Prothrombin time) 2xPT [2],IC50 (Human thrombin)
"CC(C)Nc1nc(Br)c(-c2cc(N)cc(C(=O)O)c2)n(CC(=O)NCc2ccc(C(=N)N)cc2)c1=O [Example 3, 3-Amino-5-[1-[2-({4-[amino(imino)methyl]benzyl}amino)-2-oxoethyl]-3-bromo-5-(isopropylamino)-6-oxo-1,6-dihydropyrazin-2-yl]benzoic Acid]",< 100 nM,> 30 µM,<50.0 µM,
"CC(C)Nc1ncc(-c2cc(N)cc(C(=O)O)c2)n(CC(=O)NCc2ccc(C(=N)N)cc2)c1=O [Example 16, 3-amino-5-[1-[2-({4-[amino(imino)methyl]benzyl}amino)-2-oxoethyl]-5-(isopropylamino)-6-oxo-1,6-dihydropyrazin-2-yl]benzoic Acid Trifluoracetate]",,,<50.0 µM,
CC(C)Nc1ncc(-c2cc(N)cc(C(=O)NCc3cccc(F)c3)c2)n(CC(=O)NCc2ccc(C(=N)N)cc2)c1=O.O=C(O)C(F)(F)F.O=C(O)C(F)(F)F [Example 29],,,<50.0 µM,
CCC(C)NC(=O)c1cc(N)cc(-c2cnc(NC(C)C)c(=O)n2CC(=O)NCc2ccc(C(=N)N)c(O)c2)c1 (stereo not shown) [Example 115],< 100 nM,,<50.0 µM,
CC(C)Nc1ncc(-c2cc(N)cc(N)c2)n(CC(=O)NCc2cc(O)c(C(=N)N)c(F)c2)c1=O.O=C(O)C(F)(F)F [Example 117],,,<50.0 µM,
CCCCNc1cc(N)cc(-c2cnc(NC(C)C)c(=O)n2CC(=O)NCc2ccc(C(=N)N)cc2)c1.O=C(O)C(F)(F)F.O=C(O)C(F)(F)F [Example 145],< 100 nM,,<50.0 µM,
CC(C)Nc1ncc(-c2cc(N)cc(NCC3CCNCC3)c2)n(CC(=O)NCc2ccc(C(=N)N)cc2)c1=O.O=C(O)C(F)(F)F.O=C(O)C(F)(F)F [Example 146],< 100 nM,,<50.0 µM,
CC(C)Nc1ncc(-c2cc(N)cc(NCC3CCCNC3)c2)n(CC(=O)NCc2ccc(C(=N)N)cc2)c1=O.O=C(O)C(F)(F)F.O=C(O)C(F)(F)F (stereo not shown) [Example 147],< 100 nM,,<50.0 µM,
CC(C)Nc1ncc(-c2cc(N)cc(NC3CCCC3)c2)n(CC(=O)NCc2ccc(C(=N)N)cc2)c1=O.O=C(O)C(F)(F)F.O=C(O)C(F)(F)F [Example 148],< 100 nM,,<50.0 µM,
CC(C)Nc1ncc(-c2cc(N)cc(NCC(C)(C)C)c2)n(CC(=O)NCc2ccc(C(=N)N)cc2)c1=O.O=C(O)C(F)(F)F.O=C(O)C(F)(F)F [Example 152],,,<50.0 µM,
CC(C)Nc1ncc(-c2cc(N)cc(NCCC(C)(C)C)c2)n(CC(=O)NCc2ccc(C(=N)N)cc2)c1=O.O=C(O)C(F)(F)F.O=C(O)C(F)(F)F [Example 153],,,<50.0 µM,
"CC(C)Nc1ncc(-c2cc(N)cc(C(F)(F)F)c2)n(CC(=O)NCc2ccc(C(=N)N)c(F)c2)c1=O.Cl [Example 154, N-{4-[amino(imino)methyl]-3-fluorobenzyl}-2-[6-[3-amino-5-(trifluoromethyl)phenyl]-3-(isopropylamino)-2-oxopyrazin-1 (2H)-yl]acetamide]",,,>50.0 µM,
"CC[C@@H](C)NC(=O)c1cc(N)cc(-c2cnc(NC(C)(C)C)c(=O)n2CC(=O)NCc2ccc(C(=N)N)cc2)c1 [Example 256, 3-amino-5-[1-[2-({4-[amino(imino)methyl]benzyl}amino)-2-oxoethyl]-5-(tert-butylamino)-6-oxo-1,6-dihydropyrazin-2-yl]-N-[(lR)-1-methylpropyl]benzamide bis(trifluoroacetate)]",< 100 nM,> 30 µM,,< 30 µM
CC[C@H](C)NC(=O)c1cc(N)cc(-c2cnc(NC)c(=O)n2CC(=O)NCc2ccc(C(=N)N)cc2)c1 [Example 257],< 100 nM,> 30 µM,,> 30 µM
CC[C@@H](C)NC(=O)c1cc(N)cc(-c2cnc(NC3CC3)c(=O)n2CC(=O)NCc2ccc(C(=N)N)cc2)c1 [Example 258],< 100 nM,> 30 µM,,< 30 µM
